Measurements taken from US9603922B2, “Modulation of NKT cell activity with antigen-loaded CD1d molecules” (VACCINEX, INC., priority 2007, dated 2017).

Assays:
human iNKT cells = assay: Recognition by human iNKT cells (Table 3 comments); type: cell-based
iNKT cells [1] = assay: Activity in vitro of ceramide-like glycolipid antigens (Table 3); type: cell-based, mouse; details: partly also in vivo
Description: The ability of a composition of the present invention to modulate an immune response can be readily determined by an in vitro assay. NKT cells for use in the assays include transformed NKT cell lines, or NKT cells which are isolated from a mammal, e.g., from a human or from a rodent such as a mouse. NKT cells can be isolated from a mammal by sorting cells that bind CD1d:α-GalCer tetramers.
The NKT cells employed in the assays are incubated under conditions suitable for proliferation. […] Serial dilutions of the compound can be added to the NKT cell culture medium.
(§1) Alternatively, rather than measurement of an expressed protein such as IL-4 or IFN-γ, modulation of NKT cell activation can be determined by changes in antigen-dependent T cell proliferation as measured by radiolabelling techniques as are recognized in the art. For example, a labeled (e.g., tritiated) nucleotide may be introduced to an assay culture medium. Incorporation of such a tagged nucleotide into DNA serves as a measure of T cell proliferation. […] A difference in the level of T cell proliferation following contact with the compound of the invention indicates the complex modulates activity of the T cells. For example, a decrease in NKT cell proliferation indicates the compound can suppress an immune response. An increase in NKT cell proliferation indicates the compound can stimulate an immune response.

mouse iNKT hybridoma = assay: iNKT hybridoma stimulation assay (Table 3 comments); type: cell-based
Excerpt: (§2) The ability of a composition of the present invention to modulate an immune response can be readily determined by an in vitro assay. NKT cells for use in the assays include transformed NKT cell lines, or NKT cells which are isolated from a mammal, e.g., from a human or from a rodent such as a mouse. NKT cells can be isolated from a mammal by sorting cells that bind CD1d:α-GalCer tetramers. See, for example, Benlagha et al., J Exp Med 191 (2000), pp. 1895-1903; Matsuda et al., J Exp Med 192 (2000), pp. 741-754; and Karadimitris et al., Proc Natl Acad Sci USA 98 (2001), pp. 3294-3298. A suitable assay to determine if a compound of the present invention is capable of modulating the activity of NKT cells is conducted by coculturing NKT cells and antigen presenting cells, adding the particular compound of interest to the culture medium that targets either the antigen presenting cells or the NKT cells directly, and measuring IL-4 or IFN-γ production. A significant increase or decrease in IL-4 or IFN-γ production over the same co-culture of cells in the absence of the compound of the invention or, preferably, in the presence of a compound of the invention with a non-targeting antibody indicates stimulation or inhibition of NKT cells.
The NKT cells employed in the assays are incubated under conditions suitable for proliferation. For example, an NKT cell hybridoma is suitably incubated at about 37° C. and 5% CO2 in complete culture medium (RPMI 1640 supplemented with 10% FBS, penicillin/streptomycin, L-glutamine and 5×10−5 M 2-mercaptoethanol). Serial dilutions of the compound can be added to the NKT cell culture medium.

SLE in NZB/W F1 mice = SLE in NZB/W F1 mice (Table 3 comments); type: in vivo, mouse
iNKT cells [2] = assay: Activity in vivo of ceramide-like glycolipid antigens, serum cytokine response (Table 3); details: serum cytokines
Excerpt: In vivo assays also may be suitably employed to determine the ability of a composition of the invention to modulate the activity of NKT cells. For example, a composition of interest can be assayed for its ability to stimulate NKT cell activation or inhibit tumor growth. For example, a composition of the invention can be administered to a mammal such as a mouse, before or after challenge with a tumorigenic dose of transformed cells and the presence or size of growing tumors may be monitored.

splenocytes = assay: Splenocyte stimulation assay: proliferation and cytokine secretion (Table 3 comments); type: cell-based, mouse; details: for Comments: cytokine secretion (IL-4, IFNγ): cytokine secretion assays; for Comments: IL-4 relative to IFNγ: in vitro with splenocytes from NZB/W F1 mice
Excerpt: as §2, §1

iNKT cells [3] = details: reported by others, in vivo IFNγ; cited from earlier work
[4] = system: mouse iNKT hybridoma / human CD1d + HeLa cells; assay: Presentation to mouse iNKT hybridoma by human CD1d + HeLa cells (Table 3 comments); type: cell-based

Compound: CCCCCCCCCCCCCCCCCCCCCCCC(=O)N[C@@H](COC1OC(CO)C(O)C(O)C1O)[C@H](O)[C@H](O)CCCCC (stereo partly drawn) [AH04-1, reference compound]
- Comments: recognition by human iNKT cells (human iNKT cells): seems NOT to be recognized by human iNKT cells
- Comments: iNKT agonist activity and cytokine profile in words (iNKT cells [1]): Weaker agonist than DB03-4 in our hands, and skewing of cytokine response not very impressive in most assays

Compound: CCCCCCCCCCCCCCCCCCCCCCCC(=O)N[C@@H](COC1OC(CO)C(O)C(O)C1O)[C@H](O)CCCCCC (stereo partly drawn) [AH04-2]
- Comments: activity in iNKT hybridoma stimulation assay (mouse iNKT hybridoma): About a half log more potent than OCH in hybridoma stimulation assay

Compound: CCCCCCCCCCCCCCCCCCCCCCCC(=O)N[C@@H](COC1OC(CO)C(O)C(O)C1O)[C@H](O)[C@H](O)CCCCCCCCCCCCCC (stereo partly drawn) [DB02-1]
- Comments: iNKT agonist activity and cytokine profile in words (iNKT cells [1]): Moderate to weak iNKT agonist in vitro and in vivo. Gives reasonably strong early IL-4 response, with reduced late IFNγ like DB03-4 or OCH.

Compound: CCCC/C=C\C/C=C\CCCCCCCCCC(=O)N[C@@H](COC1OC(CO)C(O)C(O)C1O)[C@H](O)[C@H](O)CCCCCCCCCCCCCC (stereo partly drawn) [DB03-4]
- Comments: iNKT agonist activity and cytokine profile in words (iNKT cells [1]): “Type 2 Cytokine bias”: Strong inducer of iNKT cell IL-4 response, with blunted IFNγ and NK cell transactivation.

Compound: CCCCC/C=C\C/C=C\C/C=C\C/C=C\CCCC(=O)N[C@@H](COC1OC(CO)C(O)C(O)C1O)[C@H](O)[C@H](O)CCCCCCCCCCCCCC (stereo partly drawn) [DB03-5]
- Comments: iNKT agonist activity and cytokine profile in words (iNKT cells [1]): “Type 2 Cytokine bias”: Strong inducer of iNKT cell IL-4 response, with blunted IFNγ and NK cell transactivation.

Compound: CCCCCCCCCCCCCCCCCCCCCCCC(=O)N[C@@H](COC1OC(C)[C@@H](O)C(O)C1O)[C@H](O)[C@H](O)CCCCCCCCCCCCCC (stereo partly drawn) [DB03-8]
- Comments: effect on SLE (SLE in NZB/W F1 mice): exacerbates SLE in NZB/W F1 mice
- Comments: in vivo cytokine response in words (iNKT cells [2]): No serum cytokine response in vivo
- Comments: iNKT agonist activity and cytokine profile in words (iNKT cells [1]): Weak iNKT agonist activity in vitro

Compound: CCCCCCCCCCCCCCCCCCCCCCCCCC(=O)N[C@@H](COC1OC(CO)C(O)C(O)C1O)[C@H](O)[C@H](O)CCCCCCCCCCCCCC (stereo partly drawn) [DB04-1 (KRN 7000), reference compound]
- Comments: iNKT agonist activity and cytokine profile in words (iNKT cells [1]): KRN7000. Strong agonist, mixed IL-4 and IFNγ response both in vivo and in vitro.

Compound: CCCCC/C=C\C=C\CCCCCCCCC(=O)N[C@@H](COC1OC(CO)C(O)C(O)C1O)[C@H](O)[C@H](O)CCCCCCCCCCCCCC (stereo partly drawn) [DB05-9]
- Comments: iNKT agonist activity and cytokine profile in words (iNKT cells [1]): A potent Th2-biased agonist in vitro. Not tested yet in vivo (122206)

Compound: CCCCCC/C=C\C=C/CCCCCCCC(=O)N[C@@H](COC1OC(CO)C(O)C(O)C1O)[C@H](O)[C@H](O)CCCCCCCCCCCCCC (stereo partly drawn) [DB05-11]
- Comments: splenocyte proliferation (splenocytes): possibly more active in proliferation assay
- Comments: iNKT agonist activity and cytokine profile in words (iNKT cells [1]): A potent Th2-biased analogue similar to DB05-9

Compound: CCCCC\C=C/C=C/C=C/CCCCCCC(=O)N[C@@H](COC1OC(CO)C(O)C(O)C1O)[C@H](O)[C@H](O)CCCCCCCCCCCCCC (stereo partly drawn) [DB05-14]
- Comments: cytokine secretion (IL-4, IFNγ) (splenocytes): strong IL-4 secretion bias
- Comments: splenocyte proliferation (splenocytes): Very active in prolif

Compound: CCCC/C=C/C=C/C=C\CCCCCCCC(=O)N[C@@H](COC1OC(CO)C(O)C(O)C1O)[C@H](O)[C@H](O)CCCCCCCCCCCCCC (stereo partly drawn) [DB05-17]
- Comments: cytokine secretion (IL-4, IFNγ) (splenocytes): moderately strong in cytokine secretion assays with moderate IL-4 predominance
- Comments: splenocyte proliferation (splenocytes): Weak in splenocyte prolif

Compound: CCCCCCCCCCCCCCCCCCCCCCCCCC(=O)N[C@@H](COC1OC(C)[C@@H](O)C(O)C1O)[C@H](O)[C@H](O)CCCCCCCCCCCCCC (stereo partly drawn) [DB06-14]
- Comments: cytokine secretion (IL-4, IFNγ) (splenocytes): moderate IL-4 secretion at high concentration with weak IFNg
- Comments: activity in splenocyte stimulation assay (splenocytes; overall activity): Weakly active in splenocyte stimulation in vitro
- Comments: splenocyte proliferation (splenocytes): Minimal or no prolif

Compound: CCCCC/C=C\C/C=C\CCCCCCCCCC(=O)N[C@@H](COC1OC(CO)C(O)C(O)C1O)[C@H](O)[C@H](O)CCCCCCCCCCCCCC (stereo partly drawn) [DB06-15]
- Comments: cytokine secretion (IL-4, IFNγ) (splenocytes): Weak IL-4 and even weaker INFg secretion
- Comments: splenocyte proliferation (splenocytes): Moderately active in splenocyte prolif

Compound: CCCCCCCCCCCCCCCCCCCCCCCCCC(=O)N[C@@H](CCC1OC(CO)C(O)C(O)C1O)[C@H](O)[C@H](O)CCCCCCCCCCCCCC (stereo partly drawn) [RF03-1]
- Comments: reported agonist activity (iNKT cells [3]): C-glycoside of KRN7000. Reported to be strong agonist, with enhanced IFNγ production in vivo. May have slower kinetics of activation.

Compound: CCCCCCCCCCCCCCCCCCCCCCCCCC(=O)N[C@@H](CSC1OC(CO)C(O)C(O)C1O)[C@H](O)[C@H](O)CCCCCCCCCCCCCC (stereo partly drawn) [SKRN 7000, reference compound]
- Comments: activity in iNKT hybridoma stimulation assay (mouse iNKT hybridoma): No agonist activity in iNKT hybridoma assay
- Comments: autoreactivity of iNKT cell hybridoma (mouse iNKT hybridoma): seemed to reduce autoreactivity of iNKT cell hybridoma

Compound: CCCCCCCCCCCCCCCCCC(=O)N[C@@H](COC1OC(CO)C(O)C(O)C1O)[C@H](O)[C@H](O)CCCCCCCCCCCCCC (stereo partly drawn) [YTC03-15]
- Comments: activity when presented to mouse iNKT hybridoma by human CD1d + HeLa cells [4]: EXTREMELY active when presented to mouse iNKT hybridoma by human CD1d + HeLa cells

Compound: CCCCCCCCCCCCCC[C@@H](O)[C@@H](O)[C@H](COC1OC(CO)C(O)C(O)C1O)NC(=O)C(c1ccccc1)c1ccccc1 (stereo partly drawn) [YTC03-17]
- Comments: in vivo cytokine response in words (iNKT cells [2]): no activity detectable in vivo (cytokine stimulation)
- Comments: iNKT agonist activity and cytokine profile in words (iNKT cells [1]): Very strong agonist in some in vitro studies

Compound: CCCCCCCCCCCCCC[C@@H](O)[C@@H](O)[C@H](COC1OC(CO)C(O)C(O)C1O)NC(=O)Cc1ccc(OC)c(OC)c1 (stereo partly drawn) [YTC03-24]
- Comments: IL-4 relative to IFNγ (splenocytes): Possible enhanced IL-4 relative to IFNγ in vitro with splenocytes from NZB/W F1 mice

Compound: CCCCCCCCCCCCCC[C@@H](O)[C@@H](O)[C@H](COC1OC(CO)C(O)C(O)C1O)NC(=O)Cc1ccc(F)cc1 (stereo partly drawn) [YTC03-30]
- Comments: IL-4 relative to IFNγ (splenocytes): Possible enhanced IL-4 relative to IFNγ
- Comments: activity when presented to mouse iNKT hybridoma by human CD1d + HeLa cells [4]: EXTREMELY active

Compound: CCCCCCCCCCCCCC[C@@H](O)[C@@H](O)[C@H](COC1OC(CO)C(O)C(O)C1O)NC(=O)CCCCCCCCC (stereo partly drawn) [YTC03-34]
- Comments: in vivo cytokine response in words (iNKT cells [2]): Active in vivo with good IL-4 production assoc. with weak IFNgamma and weak IL-12 p70
- Comments: activity in iNKT hybridoma stimulation assay (mouse iNKT hybridoma): Moderate activity with mouse iNKT hybridoma
